Test system: hemophilic arthropathy rat model (knee joint swelling)
Assay: Joint swelling in rat hemophilic arthropathy model induced by intraarticular injection of whole blood
Format: in vivo, female Lewis rats
Conditions: for % change of joint swelling: left vs right knee oval area, p<0.05
Protocol: A total of 8 female Lewis rats were used for hemophilia arthropathy (HA) study. The animals were specific pathogen free and approximately 6 to 7 weeks old upon start dosing.
Animals were randomized into 2 groups on Day 1 and started to receive diacerein or vehicle treatments throughout the study of 10 days. On Day 4 and Day 8, treatment was performed 1 hour before HA model induction. For HA induction, under anesthesia with 1.5-5% isoflurane (inhalation anesthesia machine, Matrix vip 3000 isoflurane), blood was collected from orbital sinus of each rat and immediately, 0.1 ml of whole blood was intraarticular injected into the cavity of left knee using syringe with 27G needle. The blood was anti-coagulated with EDTA-2K. Body weight and joint swelling measurement were assessed 4 hours post-dosing every day.
The longitudinal and transverse axes of both knee joints were measured with calipers on Day 1 (pre-dose), Day 4 (pre-dose), and Day 4-10 (4 hours post-dose). The oval area of knee joints and % change of joint swelling was calculated using the following formula:
Oval area=longitudinal axis×transverse axis×3.14×0.25% change of joint swelling=(Oval area left−Oval area right)/Oval area right×100%

CC(=O)Oc1cccc2c1C(=O)c1c(OC(C)=O)cc(C(=O)O)cc1C2=O [diacerein, 4,5-bis (acetyloxy) 9,10-dihydro-4,5-dihydroxy-9,10-dioxo-2-anthracenecarboxylic acid]
% change of joint swelling (Day 8, the second hemophilia arthropathy induction, vehicle 22.57±3.77%): 10.02±3.54%
% change of joint swelling (Day 10, end of the study, vehicle 13.51±4.78%): 0.50±3.28%
joint swelling (qualitative) (hemophilic arthropathy rat model, compared with vehicle): suppressed joint swelling

Source: US20170319532A1, “METHODS AND FORMULATIONS FOR TREATMENT AND/OR PREVENTION OF BLOOD-ASSOCIATED DISORDERS” (TWi Biotechnology, Inc., priority 2016, published 2017)
